# According to patent publication US20260265256A1 (IMPACT THERAPEUTICS (SHANGHAI), INC., priority 2023, published 2026):
# Experiments:
# [1] = tested on: MDA-MB-436 cells; assay: Growth inhibition assay against BRCA mutant human breast cancer MDA-MB-436 cell line (CCK-8, 7 days); type: cell-based; details: 168 h, MDA-MB-436, 7 days, read-out: IC50 (nM), proliferation of human breast cancer cells MDA-MB-436
# Procedure: The cells were cultured in complete medium (DMEM medium+10% FBS+Insulin+glutathione). When the confluence reached about 80%, cells were digested and gently dispensed from the bottom of the dish with a 1 mL pipette. Cell suspension was collected and centrifuged at 500 rpm for 3 min. The supernatant was discarded, and the cell pellet were re-suspended in complete medium. The cells were seeded into a culture dish at an appropriate proportion, and then cultured in a 5% CO2 incubator at 37° C. The assay was carried out when the cells were in optimum condition and the confluence was reached 80%. Cells in the logarithmic growth phase were taken to centrifugate, and the culture supernatant was removed. The cells were resuspended in refresh complete medium and counted. The resuspended cells were seeded at 3000/well in a 96-well plate and incubated at 37° C., 5% CO2 incubator overnight. […] The solution was mixed by oscillation. 0.10% DMSO was used as the control.
# The next day, the 96-well plate inoculated with cells was taken out from the incubator, and the culture supernatant was removed. Then fresh medium of 195 uL/well and 5 μL/well of 40× test compound solution as mentioned above were added into the 96 well plate, respectively. Finally, the plate was incubated for 7 days in a 37° C. 5% CO2 incubator. The medium containing compound was changed on the fourth day. After 7 days, 20 μL of CCK-8 was added to each well and shaken gently, then was cultured for 4 hours. The plate was shaken for 5 min after incubation, the absorbance values of 450 nm or 650 nm wavelengths were recorded respectively (OD=absorbance value of 450 nm−absorbance value of 650 nm) by using the multifunction readout instrument.
# Data were analyzed by software GraphPad Prism 6.0. The inhibitory activity of compounds on cell proliferation was plotted using cell survival rate against the compound concentration as coordinates. Cell survival rate %=(ODcompound−ODbackground)/(ODDMSO−ODbackground)×100.
# Table 2 summarizes the inhibitory effect data (IC50) of the compounds on the proliferation of human breast cancer cells MDA-MB-436.
# [2] = target: T1, PDE3A (Homo sapiens, UniProt Q14432); assay: PDE3A fluorescence polarization (FP) assay; type: biochemical; details: 2 nM PDE3A, 0.2 μM FAM-cAMP, read-out: IC50 (μM), PDE3A enzyme activity
# T1 construct: purchased Sino Biological 11908-H20B1
# Procedure: A PDE3A fluorescence polarization (FP) assay in a multi-step format was performed using black, round bottom 384-well plates (Corning, 4514). The testing compounds were serially diluted from stock solutions to 11 concentrations with a 3-fold dilution factor using DMSO. Fifty nL of compound dilutions was mixed with 5 μL of reaction buffer (10 mM Tris-HCl, pH 7.2, 10 mM MgCl2, 0.05% NaN3, 0.1% phosphate-free BSA) containing 0.2 μM FAM-cAMP (BPS, 60200) and 2 nM PDE3A (Sino Biological, 11908-H20B1) enzyme, and incubated for 60 min at 25° C. Afterwards, 15 μL binding agent mixture (Molecular Devices, R8124) was added to each well and the plate was incubated for 60 min at 25° C. The plate was loaded to a BMG PHERAstar FSX to read Fluorescence Polarization (FP) values at a setting of: Ex: 485 nm and Em: 520 nm. Emission light intensity with polarizers parallel (Em|) and emission light intensity with polarizers perpendicular (Em⊥) were recorded. The Polarization (mP) values were calculated using the following formula: mP=(SignalEm|−SignalEm⊥)/(SignalEm|+SignalEm⊥).
# Data analysis: • 1) The inhibition % of a compound dose is calculated as:
# [formula] • wherein mPMin and mPMax refer to the polarization readings in the condition of substrate only and substrate+enzyme, respectively. • 2) The IC50 values were calculated from non-linear curve fitting using following regression equation using a commercial curve fitting software GraphPad Prism 9.2.0.
# wherein X refers to Log of compound concentration and Y refers to % Inhibition.
# Table 3 summarize the inhibitory effects of compounds on PDE3A enzyme activity (IC50).
# [3] = target: recombinant poly(ADP-ribose) polymerase 2 (PARP2) (Homo sapiens, UniProt Q9UGN5); assay: PARP2 chemiluminescent assay; type: biochemical; details: PARP2 enzyme activity, chemiluminescence, 40 ng enzyme/well
# Procedure: The solution of recombinant poly(ADP-ribose) polymerase 1 and 2 (PARP1 and PARP2) (40 ng enzyme/well) and the compounds to be tested were mixed, respectively. The solutions were added to a 96-well plate coated with histone mixture, incubated at room temperature for 1 h, then 50 μL 0.3 ng/mL Streptavidin-HRP was added to each well. The plates were incubated for 30 minutes at room temperature. Finally, the plates were treated with streptavidin-HRP followed by addition of the ELISA ECL substrate to produce chemiluminescence that can be measured using a chemiluminescence reader. Inhibition of the tested compound to PARP1/2 enzyme activity was calculated according to the following formula. [formula] IC50 value is obtained by fitting the s-shaped dose response curve equation by using XL Fit software.
# Sequence of recombinant poly(ADP-ribose) polymerase 2 (PARP2) (Q9UGN5 whole entry): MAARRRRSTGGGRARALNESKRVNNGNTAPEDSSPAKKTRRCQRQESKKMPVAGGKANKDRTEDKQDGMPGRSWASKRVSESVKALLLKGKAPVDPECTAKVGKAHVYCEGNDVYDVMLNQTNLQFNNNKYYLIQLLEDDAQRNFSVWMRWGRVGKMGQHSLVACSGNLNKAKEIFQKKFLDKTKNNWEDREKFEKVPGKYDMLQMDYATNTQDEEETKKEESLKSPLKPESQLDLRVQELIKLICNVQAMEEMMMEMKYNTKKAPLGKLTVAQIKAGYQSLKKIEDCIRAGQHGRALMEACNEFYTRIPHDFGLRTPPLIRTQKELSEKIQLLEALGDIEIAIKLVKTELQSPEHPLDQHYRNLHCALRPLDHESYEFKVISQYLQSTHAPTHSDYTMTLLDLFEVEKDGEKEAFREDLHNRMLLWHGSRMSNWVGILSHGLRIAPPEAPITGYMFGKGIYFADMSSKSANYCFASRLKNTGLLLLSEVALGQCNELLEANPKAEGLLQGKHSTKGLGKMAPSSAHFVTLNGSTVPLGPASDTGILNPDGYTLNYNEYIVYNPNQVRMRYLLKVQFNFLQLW
# T1 sequence (Q14432 669-1141 limits assumed): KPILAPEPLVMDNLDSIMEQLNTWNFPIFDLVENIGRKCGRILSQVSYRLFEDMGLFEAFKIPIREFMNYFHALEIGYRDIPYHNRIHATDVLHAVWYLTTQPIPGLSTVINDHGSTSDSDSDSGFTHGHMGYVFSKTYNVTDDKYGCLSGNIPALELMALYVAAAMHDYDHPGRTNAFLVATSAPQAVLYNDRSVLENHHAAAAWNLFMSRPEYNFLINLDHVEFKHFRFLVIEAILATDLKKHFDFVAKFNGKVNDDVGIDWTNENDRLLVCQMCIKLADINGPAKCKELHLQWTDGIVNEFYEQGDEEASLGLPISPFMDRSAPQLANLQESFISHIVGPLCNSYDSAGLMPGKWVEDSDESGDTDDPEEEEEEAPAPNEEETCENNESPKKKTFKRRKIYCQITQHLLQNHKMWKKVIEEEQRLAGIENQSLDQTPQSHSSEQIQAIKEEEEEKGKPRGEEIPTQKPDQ
IC50 [1] [nM],IC50 [2] [µM],IC50 [3] [nM],Compound
> 100,> 30,–,"CNC(=O)c1ccc(-n2cc3c(n2)CCN(Cc2ccc4c([nH]c(=O)c5c(C)cnn54)c2F)C3)c(C)n1 [Example 11, 5-(5-((6-fluoro-3-methyl-4-oxo-4,5-dihydropyrazolo[1,5-a]quinoxalin-7-yl)methyl)-4,5,6,7-tetrahydro-2H-pyrazolo[4,3-c]pyridin-2-yl)-N,6-dimethylpicolinamide]"
0.71,> 30,–,"CNC(=O)c1ccc(-n2cc3c(n2)CN(Cc2ccc4c([nH]c(=O)n5cc(C)nc45)c2F)C3)cn1 [Example 49, 5-(5-((7-fluoro-2-methyl-5-oxo-5,6-dihydroimidazo[1,2-c]quinazolin-8-yl)methyl)-5,6-dihydropyrrolo[3,4-c]pyrazol-2(4H)-yl)-N-methylpicolinamide]"
1.82,> 30,–,"CNC(=O)c1ccc(-n2cc3c(c2)CN(Cc2ccc4c([nH]c(=O)c5c(C)cnn54)c2F)C3)cn1 [Example 39, 5-(5-((6-fluoro-3-methyl-4-oxo-4,5-dihydropyrazolo[1,5-a]quinoxalin-7-yl)methyl)-5,6-dihydropyrrolo[3,4-c]pyrrol-2(4H)-yl)-N-methylpicolinamide]"
0.92,> 30,–,"CCNC(=O)c1ccc(-n2cc3c(n2)CN(Cc2ccc4c([nH]c(=O)n5cc(C)nc45)c2F)C3)c(F)n1 [Example 52, N-ethyl-6-fluoro-5-(5-((7-fluoro-2-methyl-5-oxo-5,6-dihydroimidazo[1,2-c]quinazolin-8-yl)methyl)-5,6-dihydropyrrolo[3,4-c]pyrazol-2(4H)-yl)picolinamide]"
1.44,> 30,–,"CNC(=O)c1ccc(-n2cc3c(n2)CN(Cc2ccc4c([nH]c(=O)c5cc(F)nn54)c2F)C3)cn1 [Example 27, 5-(5-((2,6-difluoro-4-oxo-4,5-dihydropyrazolo[1,5-a]quinoxalin-7-yl)methyl)-5,6-dihydropyrrolo[3,4-c]pyrazol-2(4H)-yl)-N-methylpicolinamide]"
0.59,> 30,–,"CCNC(=O)c1ccc(-n2cc3c(n2)CN(Cc2ccc4c([nH]c(=O)c5c(F)cnn54)c2F)C3)cn1 [Example 18, 5-(5-((3,6-difluoro-4-oxo-4,5-dihydropyrazolo[1,5-a]quinoxalin-7-yl)methyl)-5,6-dihydropyrrolo[3,4-c]pyrazol-2(4H)-yl)-N-ethylpicolinamide]"
2.97,2.41,–,CNC(=O)c1ccc(N2CC3=C(CN(Cc4ccc5c([nH]c(=O)c6c(F)cnn65)c4F)C3)C2)c(F)n1 [Example 58]
4.66,–,2760,"CNC(=O)c1ccc(-n2cc3c(n2)CN(Cc2ccc4c([nH]c(=O)c5cc(F)nn54)c2F)C3)c(F)n1 [Example 56, 5-(5-((2,6-difluoro-4-oxo-4,5-dihydropyrazolo[1,5-a]quinoxalin-7-yl)methyl)-5,6-dihydropyrrolo[3,4-c]pyrazol-2(4H)-yl)-6-fluoro-N-methylpicolinamide]"
1.01,–,180,"CCNC(=O)c1ccc(-n2cc3c(n2)CN(Cc2ccc4c([nH]c(=O)n5cc(C)nc45)c2F)C3)cn1 [Example 50, N-ethyl-5-(5-((7-fluoro-2-methyl-5-oxo-5,6-dihydroimidazo[1,2-c]quinazolin-8-yl)methyl)-5,6-dihydropyrrolo[3,4-c]pyrazol-2(4H)-yl)picolinamide]"
13,–,64,"CNC(=O)c1ccc(-n2cc3c(n2)CN(Cc2ccc4c([nH]c(=O)c5c(C(F)(F)F)cnn54)c2F)C3)c(F)n1 [Example 26, 5-(5-((6-fluoro-4-oxo-3-(trifluoromethyl)-4,5-dihydropyrazolo[1,5-a]quinoxalin-7-yl)methyl)-5,6-dihydropyrrolo[3,4-c]pyrazol-2(4H)-yl)-6-fluoro-N-methylpicolinamide]"
2.14,–,> 10000,"O=C(NC1CC1)c1ccc(-n2cc3c(n2)CN(Cc2ccc4c([nH]c(=O)c5c(F)cnn54)c2F)C3)c(F)n1 [Example 21, N-cyclopropyl-5-(5-((3,6-difluoro-4-oxo-4,5-dihydropyrazolo[1,5-a]quinoxalin-7-yl)methyl)-5,6-dihydropyrrolo[3,4-c]pyrazol-2(4H)-yl)-6-fluoropicolinamide]"
> 100,> 30,–,"CNC(=O)c1ccc(-n2cc3c(n2)CCN(Cc2ccc4c([nH]c(=O)c5c(C)cnn54)c2F)C3)c(F)n1 [Example 12, 5-(5-((6-fluoro-3-methyl-4-oxo-4,5-dihydropyrazolo[1,5-a]quinoxalin-7-yl)methyl)-4,5,6,7-tetrahydro-2H-pyrazolo[4,3-c]pyridin-2-yl)-6-fluoro-N-methylpicolinamide]"
> 100,–,> 10000,"CNC(=O)c1ccc(-n2ncc3c2CCN(Cc2ccc4c([nH]c(=O)c5c(C)cnn54)c2F)C3)cn1 [Example 10-2, 5-(5-((6-fluoro-3-methyl-4-oxo-4,5-dihydropyrazolo[1,5-a]quinoxalin-7-yl)methyl)-4,5,6,7-tetrahydro-1H-pyrazolo[4,3-c]pyridin-1-yl)-N-methylpicolinamide]"
1.6,–,61.1,"CNC(=O)c1ccc(-c2nc3c(o2)CN(Cc2ccc4c([nH]c(=O)c5c(F)cnn54)c2F)C3)cn1 [Example 41, 5-(5-((3,6-difluoro-4-oxo-4,5-dihydropyrazolo[1,5-a]quinoxalin-7-yl)methyl)-5,6-dihydro-4H-pyrrolo[3,4-d]oxazol-2-yl)-N-methylpicolinamide]"
2.84,–,5.18,"CNC(=O)c1ccc(-c2nc3c([nH]2)CN(Cc2ccc4c([nH]c(=O)c5c(F)cnn54)c2F)C3)cn1 [Example 43, 5-(5-((3,6-difluoro-4-oxo-4,5-dihydropyrazolo[1,5-a]quinoxalin-7-yl)methyl)-1,4,5,6-tetrahydropyrrolo[3,4-d]imidazol-2-yl)-N-methylpicolinamide]"
5.06,> 30,–,"CNC(=O)c1ccc(-n2cc3c(n2)CN(Cc2ccc4c([nH]c(=O)c5c(F)cnn54)c2F)C3)c(C)n1 [Example 14, 5-(5-((3,6-difluoro-4-oxo-4,5-dihydropyrazolo[1,5-a]quinoxalin-7-yl)methyl)-5,6-dihydropyrrolo[3,4-c]pyrazol-2(4H)-yl)-N,6-dimethylpicolinamide]"
0.85,–,> 10000,"CNC(=O)c1ccc(-n2cc3c(c2)CN(Cc2ccc4c([nH]c(=O)c5c(C)cnn54)c2F)C3)c(F)n1 [Example 63, 6-fluoro-5-(5-((6-fluoro-3-methyl-4-oxo-4,5-dihydropyrazolo[1,5-a]quinoxalin-7-yl)methyl)-5,6-dihydropyrrolo[3,4-c]pyrrol-2(4H)-yl)-N-methylpicolinamide]"
